Measured values: PubChem BioAssay (NCI)
“And” between values parts separate entries of the source, which are not always exact repeats. Equal values may be shown once.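 Exposure lasted 48 hours, with cells grown in 96-well plates and compounds tested at five concentrations. Abbreviation: GI50, concentration required for 50% inhibition of growth. Definition used: TGI = concentration required for complete inhibition of growth.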 Where a SMILES comes first, the peptide text is derived from it. [ ]: non-standard residue; d: D form. Phe(F5) = N[CH](Cc1c(F)c(F)c(F)c(F)c1F)C(=O)O

Experiments:
Assay in all cases: DTP human tumour cell line panel, 48 h
[1] = tested on: ACHN renal
[2] = tested on: NCI-H522 lung
[3] = tested on: HOP-92 NSCLC
[4] = tested on: NCI-H226 lung
[5] = tested on: COLO 205 colon
[6] = tested on: SF-539 CNS
[7] = tested on: M14 melanoma
[8] = tested on: OVCAR-8 ovarian
[9] = tested on: UACC-257 melanoma
[10] = tested on: SK-OV-3 ovarian

SMILES	GI50 [1] [µM]	TGI [1] [µM]	GI50 [2] [µM]	TGI [2] [µM]	GI50 [3] [µM]	TGI [3] [µM]	GI50 [4] [µM]	TGI [4]	GI50 [5] [µM]	TGI [5]	GI50 [6] [µM]	TGI [6]	GI50 [7] [µM]	TGI [7] [µM]	GI50 [8] [µM]	TGI [8]	GI50 [9] [µM]	TGI [9]	GI50 [10] [µM]	TGI [10]
Fc1ccc2[nH]cc(Cc3c[nH]c4ccc(F)cc34)c2c1	26.1	63	14.3	36.3	15.4	34.1	31.3	92.3 µM	28.2	95.6 µM	15.7	33.6 µM	20.2	42.9	19.4	52 µM	15.7	30.8 µM	–	–
O=C1C(Cl)=C(N/N=c2/[nH][nH]/c(=N/NC3=C(Cl)C(=O)c4ccccc4C3=O)c3ccccc23)C(=O)c2ccccc21	12.7	28.2	2.78	10.9	–	–	17.8	44 µM	16.1	32.9 µM	15.6	31.7 µM	16.9	34.8	15.4	35 µM	14.9	28.7 µM	15.3	29.5 µM
COC(=O)C(CC(C)C)NC(=O)C(Cc1cnc[nH]1)NC(=O)CNC(=O)C(NC(=O)C(C)NC(=O)C(Cc1c[nH]c2ccccc12)NC(=O)C(CCC(=O)O)NC(=O)C(N)Cc1c(F)c(F)c(F)c(F)c1F)C(C)C (configuration not stated) (H-[Phe(F5)]EWAVGHL-OMe; configuration not given here)	> 100	> 100	–	> 12.5	–	–	–	> 12.5 µM	> 100	> 100 µM	> 100	> 100 µM	> 100	> 100	> 100	> 100 µM	> 100	> 100 µM	–	> 12.5 µM
c1ccc2[nH]c(-c3ccc(N4CCN(c5ccc(-c6nc7ccccc7[nH]6)cc5)CC4)cc3)nc2c1	> 100	> 100	> 100	> 100	> 100	> 100	24.2	> 100 µM	> 100	> 100 µM	> 100	> 100 µM	12.4	> 100	> 100	> 100 µM	> 100	> 100 µM	–	–
CC(=O)/C(=C\c1ccco1)C(=O)Nc1ccccc1	–	> 100	–	> 100	–	> 100	–	–	–	–	–	> 100 µM	–	> 100	–	> 100 µM	–	> 100 µM	–	> 100 µM
COC(=O)CCC(=O)N1Cc2cc(C)ccc2N(C(=O)CCC(=O)OC)Cc2cc(C)ccc21	–	> 100	–	> 100	–	> 100	–	> 100 µM	–	> 100 µM	–	> 100 µM	–	> 100	–	> 100 µM	–	–	–	> 100 µM
CC[C@](C)(O)C(=O)O[C@H]1C(=O)O[C@@H]2C[C@H]3C(C)=CC(=O)[C@@H](O)[C@]3(C)[C@H]3[C@@]4(O)OC[C@]32[C@@H]1[C@@H](C)[C@H]4O	–	1.69	0.0296	0.148	–	–	0.203	0.664 µM and 0.435 µM	1.92	7.24 µM and 3.35 µM	0.0141	0.0353 µM and 0.0895 µM	–	0.396	0.164	1.74 µM and 0.541 µM	0.142	0.841 µM and 0.218 µM	1.34	13.9 µM and 4.29 µM
C=C1C(=O)O[C@H]2C[C@@H](C)[C@@H]3CC(=O)OC[C@@]3(C)CC12 (some centres not stated)	–	60	–	12	–	34.8	–	–	–	60.7 µM	–	48 µM	–	31.6	–	48.3 µM	–	–	–	> 100 µM
COc1cccc(OC(=O)c2ccccc2Nc2ccnc(C(F)(F)F)c2)c1	3.4	24.7	7.61	> 100	5.77	60.4	8.09	77.3 µM	2.22	5.13 µM	–	–	1.36	4.04	3.63	29.3 µM	5.37	32.4 µM	–	–
CN(C)c1ccc2c(NCCCCCCNc3ccnc4cc(N(C)C)ccc34)ccnc2c1	–	33.6	–	25.2	–	–	–	–	–	–	–	45.2 µM	–	> 100	–	20.5 µM	–	49.9 µM	–	> 100 µM
COC12C=CC(CC1)c1c(O)ccc(O)c12 (configuration not stated)	–	> 61.4	–	35.1	–	–	–	> 100 µM	–	57 µM	–	> 100 µM	–	> 100	–	> 70.1 µM	–	> 100 µM	–	> 100 µM
CC(C)(C(=O)NN)c1ccccc1	–	> 100	–	> 100	–	> 100	–	–	–	> 100 µM	–	> 100 µM	–	> 100	–	> 100 µM	–	> 100 µM	–	> 100 µM
CCN=C1C=CC(=C(c2ccc(N(C)C)cc2)c2ccc(N(C)C)cc2)c2ccccc21	0.241	1.1	–	–	0.0414	0.352	–	–	0.0508	0.183 µM	0.124	0.53 µM	0.107	0.372	0.0816	1.7 µM	0.0234	0.0592 µM	0.105	0.455 µM
Cc1ccc(C(=O)Nc2ccc(S(=O)(=O)O)c3cc(S(=O)(=O)O)cc(S(=O)(=O)O)c23)cc1NC(=O)c1cccc(N)c1	–	> 100	–	> 100	–	–	–	> 100 µM	–	> 100 µM	–	> 100 µM	–	> 100	–	> 100 µM	–	> 100 µM	–	> 100 µM
COc1ccc2c(c1)CCC1C2CCC2(C)C1CCC2(O)CNC(=O)CCCCC1CCSS1 (configuration not stated)	53.6	> 100	23.7	> 100	4.9	23	13.3	> 100 µM	6.14	> 100 µM	18.3	90.8 µM	20.8	> 100	11.7	> 100 µM	31.9	> 100 µM	–	–
Cc1ccc2c(c1)C1(C)OC(CC(N)C1O)O2 (configuration not stated)	–	> 100	–	> 100	–	–	–	> 100 µM	–	> 100 µM	–	> 100 µM	–	> 100	–	> 100 µM	–	> 100 µM	–	> 100 µM
CC1CC2C(=O)NC(=O)C2c2[nH]c3ccccc3c21 (configuration not stated)	–	> 100	–	> 100	–	> 100	–	> 100 µM	–	> 100 µM	–	> 100 µM	–	> 100	–	> 100 µM	–	–	–	> 100 µM
